Assay results from ChEMBL document CHEMBL5653615 (J Biol Chem, 2013).
Activity calls are given as the source filed them. No cut-off for these calls is given here.

Experiments:
[1] = molecular target: T1, Protein kinase C zeta type (Homo sapiens) (UniProt Q05513); test: Inhibition of human PKCzeta at 500 nM by HotSpot assay relative to control
T1 sequence (whole entry): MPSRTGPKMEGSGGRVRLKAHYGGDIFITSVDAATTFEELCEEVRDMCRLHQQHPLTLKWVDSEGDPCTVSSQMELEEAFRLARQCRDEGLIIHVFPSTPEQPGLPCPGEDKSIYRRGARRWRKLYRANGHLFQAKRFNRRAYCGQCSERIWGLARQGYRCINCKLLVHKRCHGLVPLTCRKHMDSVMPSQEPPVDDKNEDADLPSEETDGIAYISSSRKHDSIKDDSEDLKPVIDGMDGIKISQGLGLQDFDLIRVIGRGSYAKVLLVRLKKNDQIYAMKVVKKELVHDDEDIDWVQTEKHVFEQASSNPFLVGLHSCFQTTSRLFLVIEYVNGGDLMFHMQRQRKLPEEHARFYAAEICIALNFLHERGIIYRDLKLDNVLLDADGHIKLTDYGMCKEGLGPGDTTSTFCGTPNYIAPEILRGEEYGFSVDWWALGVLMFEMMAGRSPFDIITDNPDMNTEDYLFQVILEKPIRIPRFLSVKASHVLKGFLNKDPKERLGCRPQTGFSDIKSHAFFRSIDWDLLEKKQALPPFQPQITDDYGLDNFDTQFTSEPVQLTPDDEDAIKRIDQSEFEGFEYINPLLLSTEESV

[2] = molecular target: Tyrosine-protein kinase BTK (Homo sapiens) (UniProt Q06187); test: Inhibition of human BTK at 1.82 nM by HotSpot assay relative to control
Chain of Tyrosine-protein kinase BTK (Homo sapiens) (Q06187 whole entry): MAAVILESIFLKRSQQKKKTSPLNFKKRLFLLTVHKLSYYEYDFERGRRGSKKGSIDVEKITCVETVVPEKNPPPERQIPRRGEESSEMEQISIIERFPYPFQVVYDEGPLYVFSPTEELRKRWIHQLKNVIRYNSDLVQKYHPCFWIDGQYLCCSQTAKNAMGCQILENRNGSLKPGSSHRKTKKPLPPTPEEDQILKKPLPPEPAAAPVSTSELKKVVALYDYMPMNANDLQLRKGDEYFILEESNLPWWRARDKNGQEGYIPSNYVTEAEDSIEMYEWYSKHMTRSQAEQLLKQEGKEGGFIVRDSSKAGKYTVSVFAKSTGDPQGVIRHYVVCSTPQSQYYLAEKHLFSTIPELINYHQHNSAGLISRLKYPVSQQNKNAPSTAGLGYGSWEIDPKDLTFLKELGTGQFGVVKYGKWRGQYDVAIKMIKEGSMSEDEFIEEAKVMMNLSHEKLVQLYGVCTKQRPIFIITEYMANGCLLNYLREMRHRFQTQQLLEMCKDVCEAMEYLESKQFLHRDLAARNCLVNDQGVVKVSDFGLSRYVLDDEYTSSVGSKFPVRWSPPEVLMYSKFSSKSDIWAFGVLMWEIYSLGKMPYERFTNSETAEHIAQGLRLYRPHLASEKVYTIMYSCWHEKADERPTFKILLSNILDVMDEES

Homo sapiens = organism: Homo sapiens; test: Inhibition of human CDK2/cyclin A at 1.82 nM by HotSpot assay relative to control
[3] = molecular target: CDK9/Cyclin K (Homo sapiens) (UniProt P50750+O75909); test: Inhibition of human CDK9/cyclin K at 1.82 nM by HotSpot assay relative to control; assay type: protein-complex assay
[4] = molecular target: T2, Discoidin domain-containing receptor 2 (Homo sapiens) (UniProt Q16832); test: Inhibition of human DDR2 at 1.82 nM by HotSpot assay relative to control
T2 sequence (whole entry): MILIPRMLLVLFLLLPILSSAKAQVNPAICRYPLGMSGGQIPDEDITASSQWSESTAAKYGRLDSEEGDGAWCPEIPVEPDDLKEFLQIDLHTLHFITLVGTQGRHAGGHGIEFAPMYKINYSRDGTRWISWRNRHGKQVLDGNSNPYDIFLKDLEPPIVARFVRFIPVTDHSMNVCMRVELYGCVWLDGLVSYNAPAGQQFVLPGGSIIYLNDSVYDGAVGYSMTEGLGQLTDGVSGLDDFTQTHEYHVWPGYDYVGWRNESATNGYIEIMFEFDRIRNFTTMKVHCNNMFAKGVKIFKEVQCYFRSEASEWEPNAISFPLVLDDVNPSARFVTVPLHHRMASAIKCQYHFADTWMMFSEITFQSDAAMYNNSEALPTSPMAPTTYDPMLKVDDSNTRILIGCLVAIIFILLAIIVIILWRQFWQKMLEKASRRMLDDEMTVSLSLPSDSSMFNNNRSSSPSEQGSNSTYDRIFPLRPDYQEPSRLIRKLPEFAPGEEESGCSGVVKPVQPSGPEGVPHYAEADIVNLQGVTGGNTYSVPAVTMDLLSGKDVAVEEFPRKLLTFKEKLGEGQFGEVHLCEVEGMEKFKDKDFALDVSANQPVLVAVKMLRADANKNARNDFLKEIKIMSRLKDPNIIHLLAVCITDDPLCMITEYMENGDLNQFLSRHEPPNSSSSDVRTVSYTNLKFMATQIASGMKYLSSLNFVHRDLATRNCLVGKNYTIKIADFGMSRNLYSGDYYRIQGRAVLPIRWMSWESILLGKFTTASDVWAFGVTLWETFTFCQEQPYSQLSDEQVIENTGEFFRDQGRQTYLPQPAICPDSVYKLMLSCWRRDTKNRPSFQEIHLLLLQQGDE

[5] = molecular target: Tyrosine-protein kinase Fer (Homo sapiens) (UniProt P16591); test: Inhibition of human FER at 1.82 nM by HotSpot assay relative to control
Chain of Tyrosine-protein kinase Fer (Homo sapiens) (P16591 whole entry, looked up): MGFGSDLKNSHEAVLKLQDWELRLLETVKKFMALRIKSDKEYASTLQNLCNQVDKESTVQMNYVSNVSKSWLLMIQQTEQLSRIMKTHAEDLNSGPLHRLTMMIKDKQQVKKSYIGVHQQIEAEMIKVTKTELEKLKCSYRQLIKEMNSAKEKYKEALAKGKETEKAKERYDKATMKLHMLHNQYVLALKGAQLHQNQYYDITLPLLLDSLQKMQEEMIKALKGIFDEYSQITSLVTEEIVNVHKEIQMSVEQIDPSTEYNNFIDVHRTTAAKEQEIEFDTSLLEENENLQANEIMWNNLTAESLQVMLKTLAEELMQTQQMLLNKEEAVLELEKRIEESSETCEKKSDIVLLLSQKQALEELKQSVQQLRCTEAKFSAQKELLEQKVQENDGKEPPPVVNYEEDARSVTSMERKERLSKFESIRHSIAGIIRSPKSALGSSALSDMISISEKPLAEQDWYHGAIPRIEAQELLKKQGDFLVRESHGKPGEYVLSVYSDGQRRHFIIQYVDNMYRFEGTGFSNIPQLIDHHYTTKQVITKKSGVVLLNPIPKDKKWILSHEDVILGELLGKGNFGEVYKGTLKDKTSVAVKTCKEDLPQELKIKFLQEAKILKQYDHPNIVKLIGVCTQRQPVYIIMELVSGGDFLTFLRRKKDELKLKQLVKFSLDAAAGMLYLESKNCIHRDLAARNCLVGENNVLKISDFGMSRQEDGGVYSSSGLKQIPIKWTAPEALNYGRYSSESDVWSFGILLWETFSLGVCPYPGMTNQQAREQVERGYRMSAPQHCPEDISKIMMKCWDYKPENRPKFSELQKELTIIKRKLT

[6] = molecular target: Serine/threonine-protein kinase MARK1 (Homo sapiens) (UniProt Q9P0L2); test: Inhibition of human MARK1 at 1.82 nM by HotSpot assay relative to control
Chain of Serine/threonine-protein kinase MARK1 (Homo sapiens) (Q9P0L2 whole entry, looked up): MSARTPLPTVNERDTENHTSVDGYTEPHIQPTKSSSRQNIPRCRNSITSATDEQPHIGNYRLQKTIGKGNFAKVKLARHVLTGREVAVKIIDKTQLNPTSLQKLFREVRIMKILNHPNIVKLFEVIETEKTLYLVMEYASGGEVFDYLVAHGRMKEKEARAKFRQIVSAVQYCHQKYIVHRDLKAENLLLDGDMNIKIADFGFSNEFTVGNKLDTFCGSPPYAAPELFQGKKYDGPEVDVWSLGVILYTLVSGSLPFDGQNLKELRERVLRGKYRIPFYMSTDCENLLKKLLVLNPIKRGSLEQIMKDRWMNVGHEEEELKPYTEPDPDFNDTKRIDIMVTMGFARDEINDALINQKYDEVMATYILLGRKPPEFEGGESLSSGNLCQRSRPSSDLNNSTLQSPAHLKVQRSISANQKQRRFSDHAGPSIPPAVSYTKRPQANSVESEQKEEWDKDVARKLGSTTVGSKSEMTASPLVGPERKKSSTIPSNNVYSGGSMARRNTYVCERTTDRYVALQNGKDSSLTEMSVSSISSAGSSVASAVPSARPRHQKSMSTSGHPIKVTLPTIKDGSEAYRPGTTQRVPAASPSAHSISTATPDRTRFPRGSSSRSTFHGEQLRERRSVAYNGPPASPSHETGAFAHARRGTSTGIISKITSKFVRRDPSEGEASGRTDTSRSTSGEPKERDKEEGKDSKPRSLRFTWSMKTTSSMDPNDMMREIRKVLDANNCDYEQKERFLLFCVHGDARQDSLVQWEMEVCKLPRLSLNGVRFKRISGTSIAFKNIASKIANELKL

[7] = molecular target: Dual specificity tyrosine-phosphorylation-regulated kinase 1B (Homo sapiens) (UniProt Q9Y463); test: Inhibition of human DYRK1B at 18.6 nM by HotSpot assay relative to control
Chain of Dual specificity tyrosine-phosphorylation-regulated kinase 1B (Homo sapiens) (Q9Y463 whole entry, looked up): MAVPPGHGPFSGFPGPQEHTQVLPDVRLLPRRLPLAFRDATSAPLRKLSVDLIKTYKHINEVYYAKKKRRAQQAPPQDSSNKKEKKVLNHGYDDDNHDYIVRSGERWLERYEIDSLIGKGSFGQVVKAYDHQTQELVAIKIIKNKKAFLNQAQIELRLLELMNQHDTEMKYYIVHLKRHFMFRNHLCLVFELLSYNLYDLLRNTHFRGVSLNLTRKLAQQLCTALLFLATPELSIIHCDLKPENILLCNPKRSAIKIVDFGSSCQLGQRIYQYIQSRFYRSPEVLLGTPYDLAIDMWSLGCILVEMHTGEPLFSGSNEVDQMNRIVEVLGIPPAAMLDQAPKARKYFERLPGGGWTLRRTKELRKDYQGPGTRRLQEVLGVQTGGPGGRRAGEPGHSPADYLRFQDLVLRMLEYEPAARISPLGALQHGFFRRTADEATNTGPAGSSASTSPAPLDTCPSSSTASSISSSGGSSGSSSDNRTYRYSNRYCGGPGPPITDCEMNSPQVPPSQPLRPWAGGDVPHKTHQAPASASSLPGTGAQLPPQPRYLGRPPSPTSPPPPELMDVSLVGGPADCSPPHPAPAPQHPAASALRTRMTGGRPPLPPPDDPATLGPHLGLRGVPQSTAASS

[8] = molecular target: Ribosomal protein S6 kinase beta-2 (Homo sapiens) (UniProt Q9UBS0); test: Inhibition of human RPS6KB2 at 18.6 nM by HotSpot assay relative to control
Chain of Ribosomal protein S6 kinase beta-2 (Homo sapiens) (Q9UBS0 whole entry): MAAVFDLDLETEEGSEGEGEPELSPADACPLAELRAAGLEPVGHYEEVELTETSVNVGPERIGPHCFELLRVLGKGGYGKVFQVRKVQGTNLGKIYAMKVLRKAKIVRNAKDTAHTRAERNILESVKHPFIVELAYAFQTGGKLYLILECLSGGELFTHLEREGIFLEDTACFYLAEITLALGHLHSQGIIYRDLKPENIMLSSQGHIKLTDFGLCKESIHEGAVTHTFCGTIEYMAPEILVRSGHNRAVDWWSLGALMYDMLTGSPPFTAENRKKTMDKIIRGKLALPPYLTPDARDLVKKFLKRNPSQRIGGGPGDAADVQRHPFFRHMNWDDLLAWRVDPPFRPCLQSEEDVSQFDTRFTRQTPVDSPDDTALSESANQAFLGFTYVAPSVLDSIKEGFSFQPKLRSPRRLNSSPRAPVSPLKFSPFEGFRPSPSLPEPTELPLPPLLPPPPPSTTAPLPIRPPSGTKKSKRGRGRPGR

[9] = molecular target: T3, Serine/threonine-protein kinase D2 (Homo sapiens) (UniProt Q9BZL6); test: Inhibition of human PRKD2 at 18.6 nM by HotSpot assay relative to control
T3 sequence (whole entry): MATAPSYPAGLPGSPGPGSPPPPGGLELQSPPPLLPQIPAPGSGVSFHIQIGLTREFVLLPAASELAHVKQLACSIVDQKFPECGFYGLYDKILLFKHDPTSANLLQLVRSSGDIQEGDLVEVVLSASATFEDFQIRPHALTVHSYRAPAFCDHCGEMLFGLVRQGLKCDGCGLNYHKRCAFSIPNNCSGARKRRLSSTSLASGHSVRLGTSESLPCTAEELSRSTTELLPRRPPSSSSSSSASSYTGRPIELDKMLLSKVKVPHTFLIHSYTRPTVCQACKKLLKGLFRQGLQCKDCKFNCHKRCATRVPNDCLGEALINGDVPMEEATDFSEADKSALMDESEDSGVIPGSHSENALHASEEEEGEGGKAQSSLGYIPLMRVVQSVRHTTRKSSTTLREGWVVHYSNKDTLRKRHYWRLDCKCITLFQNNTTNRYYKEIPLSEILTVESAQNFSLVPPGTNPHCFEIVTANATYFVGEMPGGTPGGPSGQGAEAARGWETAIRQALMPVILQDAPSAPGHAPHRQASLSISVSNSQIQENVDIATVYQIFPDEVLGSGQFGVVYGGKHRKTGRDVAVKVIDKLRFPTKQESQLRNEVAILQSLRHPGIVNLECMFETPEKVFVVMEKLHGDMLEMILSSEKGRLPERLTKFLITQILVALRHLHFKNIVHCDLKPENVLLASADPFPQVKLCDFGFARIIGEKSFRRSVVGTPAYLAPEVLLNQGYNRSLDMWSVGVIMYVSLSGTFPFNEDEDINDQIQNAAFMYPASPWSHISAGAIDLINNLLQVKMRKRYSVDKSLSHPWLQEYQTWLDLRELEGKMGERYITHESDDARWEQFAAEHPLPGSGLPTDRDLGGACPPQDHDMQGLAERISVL

CHO-K1 = test: Inhibition of Insulin receptor M1153L mutant (unknown origin) transfected in CHO-K1 cell lysate at 10 uM for 30 mins on ice followed by insulin stimulation for 10 mins by Western blot analysis; assay type: subcellular; settings: Homo sapiens, time 40.0 min

Nc1n[nH]c2nnc(-c3c(-c4ccccc4)nn4ccccc34)cc12
inhibition [1]: 16.1%

C[C@@]1(C(=O)Nc2ccc(F)nc2)CCCN1c1nc(Nc2cc(C3CC3)n[nH]2)c2cccn2n1
inhibition [2]: 4.42%
inhibition (Homo sapiens): 0.69%
inhibition [3]: 4.72%
inhibition [4]: -7.91%
inhibition [5]: -2.54%
inhibition [6]: -3.41%

C[C@]1(O)C[C@@H](c2nc(-c3ccc4ccc(-c5ccccc5)nc4c3)c3c(N)nccn32)C1
inhibition [7]: 1.39%
inhibition [8]: 0.94%
inhibition [9]: 7.59%

Oc1n[nH]c2nnc(-c3c(-c4ccccc4)nn4ccccc34)cc12
inhibition (CHO-K1): inactive
